Data on 18 compounds can be found in US9422292B2, “Bromodomain inhibitors and uses thereof” (Constellation Pharmaceuticals, Inc., priority 2011, dated 2016).

Assay [1] relates to MYC mRNA in MV4:11 (AML) cells. The experiment in a line: cMyc RNA quantification assay (QuantiGene) in MV4:11 cells. The assay is classed as cell-based. The settings on record: Homo sapiens, 4 h, QuantiGene 2.0. As for the experimental part:
B. cMyc RNA Quantification Assay (QuantiGene® Assay):
MV4:11 (AML) cells were seeded in a 96-well plate and incubated in the presence of various concentrations of compounds for 4 h. Relative mRNA levels were quantitated by using QuantiGene 2.0 assay (Affymetrix) according to the manufacturer's recommendation. Signals were detected by using an Envision plate reader (Perkin-Elmer). Biological duplicates were averaged and normalized to vehicle (DMSO) control to calculate percent MYC mRNA levels.

The subject of assay [2] is IL-6 secretion in THP-1 cells. The experiment in a line: Cell-based IL-6 quantification assay (ELISA, Mesoscale) in LPS-treated THP-1 cells. The settings on record: Homo sapiens, LPS 4 μg/mL, 16 h, ELISA value/CellTiter-Glo ratio. Here is the method: C. Cell-Based IL-6 Quantification Assay (ELISA, Mesoscale Assay):
100,000 THP-1 cells were seeded in RPMI1640-10% FBS in 96-well plates. LPS (E. Coli Invitrogen) in RPMI−10% FBS at a final concentration of 4 μg/mL was added to the wells and the cells are then incubated in the presence of various concentrations of compounds for 16 h. Plates are spun ([…], 5 min), an aliquot of 25 uL supernatant is transferred in to an ELISA plate (Mesoscale technology, MSD) and the detection of IL-6 is performed using manufacturer's instructions. The amount of cells in each well is assessed using CellTiter-Glo® (Promega). The ratio of ELISA value/CellTiter-Glo value is used to calculate the percent of inhibition of IL-6 secretion.
(An ELISA detects its analyte on a solid surface through an enzyme-linked reagent.)

A further assay has as its target T1, BRD4 (BD1) (Homo sapiens, UniProt O60885).
T1 construct: His; made in house
The assay can be described thus: BRD4 AlphaLisa binding assay. The settings on record: BRD4 (BD1) 30 nM, biotinylated H4-tetraacetyl peptide 200 nM; read-out: BRD4 AlphaLisa. Here is the method: A. IC50 Measurements for Inhibitors Using BRD4 AlphaLisa Binding Assay.
Specifically, in a 384 well ProxiPlate BRD4 (BD1) (30 nM final) was combined with peptide (200 nM final) in 40 mM HEPES (pH 7.0), 40 mM NaCl, 1 mM DTT, 0.01% (w/v) BSA, and 0.008% (w/v) Brij-35 either in the presence of DMSO (final 1.2% DMSO) or compound dilution series in DMSO. After 20 minute incubation at room temperature Alpha streptavidin donor beads and AlphaLisa anti-Flag acceptor beads were added to a final concentration of 10 ug/mL each. After three hours equilibration plates were read on an Envision instrument and IC50s calculated using a four parameter non-linear curve fit.

Take `Cc1nnc2n1-c1ccc(-c3cnn(C)c3)cc1N(c1ccc(Cl)cc1)C[C@@H]2C` [Compound 42, (S)-4H-[1,2,4]triazolo[4,3-a][1,5]benzodiazepine, 5,6-dihydro-1,4-dimethyl-8-(1-methyl-1H-pyrazol-4-yl)-6-(4-chloro-phenyl)]: the results for the IC50 (in assay [1]; in assay [2]; at BRD4 (BD1)) were 1000 to 10000 nM, > 1000 nM and 100 to 1000 nM, respectively.

With `Cc1nnc2n1-c1ccc(-c3cnn(C)c3)cc1N(c1ccc(Cl)cc1)C[C@H]2C` [Compound 43, (R)-(4H-[1,2,4]triazolo[4,3-a][1,5]benzodiazepine,5,6-dihydro-1,4-dimethyl-8-(1-methyl-1H-pyrazol-4-yl)-6-(4-chloro-phenyl))], the IC50 (in assay [1]; in assay [2]; at BRD4 (BD1)) was < 100 nM each time.

Regarding `Cc1nnc2n1-c1ccc(-c3cnn(C)c3)cc1N(c1ccc(C#N)cc1)C[C@H]2C` [Compound 44, (R)-4H-[1,2,4]triazolo[4,3-a][1,5]benzodiazepine, 5,6-dihydro-1,4-dimethyl-8-(1-methyl-1H-pyrazol-4-yl)-6-(4-cyano-phenyl)], the IC50 (in assay [1]; in assay [2]; at BRD4 (BD1)) was < 100 nM in each case.

With `Cc1nnc2n1-c1ccc(-c3cnn(CC(N)=O)c3)cc1N(c1ccc(Cl)cc1)C[C@H]2C` [Compound 46, 4H-[1,2,4]triazolo[4,3-a][1,5]benzodiazepine,5,6-dihydro-(4R)-1,4-dimethyl-8-(1-(2-amino-2-oxoethyl)-1H-pyrazol-4-yl)-6-(4-chloro-phenyl)], the IC50 is 100 to 1000 nM in assay [1], 100 to 1000 nM in assay [2] and < 100 nM on BRD4 (BD1).

Turning to `Cc1nnc2n1-c1ccc(C(=O)NCCO)cc1N(c1ccc(Cl)cc1)C[C@H]2C` [Compound 47, 4-R-4H-[1,2,4]triazolo[4,3-a][1,5]benzodiazepine,5,6-dihydro-1,4-dimethyl-8-(2-hydroxyethylcarbamoyl)-6-(4-chloro-phenyl)], the IC50 (in assay [1]; in assay [2]; at BRD4 (BD1)) was 100 to 1000 nM each time.

On to `Cc1nnc2n1-c1ccc(-c3cnn(C)n3)cc1N(c1ccc(Cl)cc1)C[C@H]2C` [Compound 48, 4H-[1,2,4]triazolo[4,3-a][1,5]benzodiazepine, 5,6-dihydro-(4R)-1,4-dimethyl-8-(2-methyl-2H-1,2,3-triazole-4-yl)-6-(4-chloro-phenyl)], for which the IC50 (in assay [1]; in assay [2]; at BRD4 (BD1)) was < 100 nM in each case.

On to `Cc1nnc(-c2ccc3c(c2)N(c2ccc(Cl)cc2)C[C@@H](C)c2nnc(C)n2-3)o1` [Compound 49, 4-R-4H-[1,2,4]triazolo[4,3-a][1,5]benzodiazepine,5,6-dihydro-1,4-dimethyl-8-(5-methyl-1,3,4-oxadiazol-2-yl)-6-(4-chloro-phenyl)], for which the IC50 (in assay [1]; in assay [2]; on BRD4 (BD1)) was < 100 nM throughout.

Turning to `Cc1nc(-c2ccc3c(c2)N(c2ccc(Cl)cc2)C[C@@H](C)c2nnc(C)n2-3)no1` [Compound 50, 4-R-4H-[1,2,4]triazolo[4,3-a][1,5]benzodiazepine, 5,6-dihydro-1,4-dimethyl-8-(5-methyl-1,2,4-oxadiazol-3-yl)-6-(4-chloro-phenyl)], the IC50 in assay [1] was < 100 nM; in assay [2], < 100 nM; on BRD4 (BD1), 100 to 1000 nM.

In the case of `Cc1noc(-c2ccc3c(c2)N(c2ccc(Cl)cc2)C[C@@H](C)c2nnc(C)n2-3)n1` [Compound 51, 4-R-4H-[1,2,4]triazolo[4,3-a][1,5]benzodiazepine,5,6-dihydro-1,4-dimethyl-8-(3-methyl-1,2,4-oxadiazol-5-yl)-6-(4-chloro-phenyl)], the IC50 is < 100 nM in assay [1], < 100 nM in assay [2] and 100 to 1000 nM on BRD4 (BD1).

For the compound `Cc1nnc2n1-c1ccc(-c3cnn(C)c3)cc1N(c1ccc(C#N)cn1)C[C@H]2C` [Compound 52, (R)-4H-[1,2,4]triazolo[4,3-a][1,5]benzodiazepine,5,6-dihydro-1,4-dimethyl-8-(1-methyl-1H-pyrazol-4-yl)-6-(5-cyanopyridin-2-yl)], the IC50 in assay [1] is 100 to 1000 nM; in assay [2], < 100 nM; on BRD4 (BD1) it was < 100 nM.

Consider `Cc1nnc2n1-c1ccc(C(=O)N3CCCC3)cc1N(c1ccc(Cl)cc1)C[C@H]2C` [Compound 53, 4-R-4H-[1,2,4]triazolo[4,3-a][1,5]benzodiazepine,5,6-dihydro-1,4-dimethyl-8-(pyrrolidine-1-carbonyl)-6-(4-chloro-phenyl)], for which the results for the IC50 (in assay [1]; in assay [2]; at BRD4 (BD1)) were 1000 to 10000 nM, 100 to 1000 nM and 100 to 1000 nM, respectively.

Consider `Cc1nnc2n1-c1ccc(-n3cncn3)cc1N(c1ccc(Cl)cc1)C[C@H]2C` [Compound 54, (R)-6-(4-chlorophenyl)-1,4-dimethyl-8-(1H-1,2,4-triazol-1-yl)-5,6-dihydro-4H-benzo[b][1,2,4]triazolo[4,3-d][1,4]diazepine], for which the IC50 (in assay [1]; in assay [2]; on BRD4 (BD1)) was < 100 nM each time.

For the compound `Cc1nnc2n1-c1ccc(-c3cnc(N)cn3)cc1N(c1ccc(Cl)cc1)C[C@H]2C` [Compound 55, 4-R-4H-[1,2,4]triazolo[4,3-a][1,5]benzodiazepine,5,6-dihydro-1,4-dimethyl-8-(5-aminopyrazin-2-yl)-6-(4-chloro-phenyl)], the IC50 (in assay [1]; in assay [2]; on BRD4 (BD1)) was < 100 nM each time.

For `Cc1nnc2n1-c1ccc(-c3cnn(C)c3)cc1N(c1ccc(C#N)cn1)C[C@@H]2C` [Compound 58, (S)-4H-[1,2,4]triazolo[4,3-a][1,5]benzodiazepine, 5,6-dihydro-1,4-dimethyl-8-(1-methyl-1H-pyrazol-4-yl)-6-(5-cyanopyridin-2-yl)], the IC50 (in assay [1]; in assay [2]; at BRD4 (BD1)) was 1000 to 10000 nM throughout.

On to `Cc1c(-c2ccc3c(c2)N(c2ccc(Cl)cc2)C[C@@H](C)c2nnc(C)n2-3)cnn1C` [Compound 59, (R)-6-(4-chlorophenyl)-8-(1,5-dimethyl-1H-pyrazol-4-yl)-1,4-dimethyl-5,6-dihydro-4H-benzo[b][1,2,4]triazolo[4,3-d][1,4]diazepine], for which the IC50 (in assay [1]; in assay [2]; on BRD4 (BD1)) was < 100 nM each time.

Consider `Cc1nnc2n1-c1ccc(S(C)(=O)=O)cc1N(c1ccc(Cl)cc1)C[C@H]2C` [Compound 60, 4H-[1,2,4]Triazolo[4,3-a][1,5]benzodiazepine,5,6-dihydro-(4R)-1,4-dimethyl-8-methylsulfonyl-6-(4-chloro-phenyl)], for which the IC50 was in the range of 1000 to 10000 nM in assay [1], 100 to 1000 nM in assay [2] and 100 to 1000 nM on BRD4 (BD1).

Regarding `Cc1nnc2n1-c1ccc(-c3ccc(=O)[nH]c3)cc1N(c1ccc(Cl)cc1)C[C@H]2C` [Compound 61, (R)-5-(6-(4-chlorophenyl)-1,4-dimethyl-5,6-dihydro-4H-benzo[b][1,2,4]triazolo[4,3-d][1,4]diazepin-8-yl)pyridin-2(1H)-one], the IC50 (in assay [1]; in assay [2]; at BRD4 (BD1)) was < 100 nM in each case.

On to `Cc1nnc2n1-c1ccc(-c3ccc(=O)n(C)c3)cc1N(c1ccc(Cl)cc1)C[C@H]2C` [Compound 62, (R)-5-(6-(4-chlorophenyl)-1,4-dimethyl-5,6-dihydro-4H-benzo[b][1,2,4]triazolo[4,3-d][1,4]diazepin-8-yl)-1-methylpyridin-2(1H)-one], for which the IC50 (in assay [1]; in assay [2]; on BRD4 (BD1)) was < 100 nM each time.
